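These data come from cells grown in 96-well plates and exposed to compound for 48 hours at five concentrations. GI50: concentration for 50% inhibition of growth. At the TGI there is no net growth.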
What was measured:
Assay in all cases: growth of human tumour cells (NCI), 48 h
ACHN renal = tested on: ACHN renal
BT-549 breast = tested on: BT-549 breast
HCT-116 colon = tested on: HCT-116 colon
KM12 colon = tested on: KM12 colon
MDA-MB-231 breast = tested on: MDA-MB-231 breast
MDA-MB-435 = tested on: MDA-MB-435
SNB-19 CNS = tested on: SNB-19 CNS
UO-31 renal = tested on: UO-31 renal
OVCAR-4 ovarian = tested on: OVCAR-4 ovarian
MCF7 breast = tested on: MCF7 breast

Compound: Cn1cnnc1[S-].[Au+].c1ccc([PH+](c2ccccc2)c2ccccc2)cc1
- GI50 (ACHN renal): 1.77 µM
- TGI (ACHN renal): 3.16 µM
- GI50 (BT-549 breast): 1.41 µM
- TGI (BT-549 breast): 2.76 µM
- GI50 (HCT-116 colon): 1.72 µM
- TGI (HCT-116 colon): 3.26 µM
- GI50 (KM12 colon): 1.71 µM
- TGI (KM12 colon): 3.22 µM
- GI50 (MDA-MB-231 breast): 1.67 µM
- TGI (MDA-MB-231 breast): 3.08 µM
- GI50 (MDA-MB-435): 1.57 µM
- TGI (MDA-MB-435): 2.98 µM
- GI50 (SNB-19 CNS): 1.62 µM
- TGI (SNB-19 CNS): 3.02 µM
- GI50 (UO-31 renal): 1.65 µM
- TGI (UO-31 renal): 3.01 µM

Compound: N#CCc1cccc(CC#N)c1Br
- TGI (ACHN renal): > 100 µM
- TGI (HCT-116 colon): > 100 µM
- TGI (KM12 colon): > 100 µM
- TGI (OVCAR-4 ovarian): > 100 µM
- TGI (SNB-19 CNS): > 100 µM
- TGI (UO-31 renal): > 100 µM

Compound: CCc1ccc2c(c1)N(CCO)C1=C(C(=O)OC1)C2c1cc(OC)c(OC)c(OC)c1 (stereo not given)
- GI50 (ACHN renal): 0.389 µM
- TGI (ACHN renal): > 50 µM
- GI50 (BT-549 breast): 0.564 µM
- TGI (BT-549 breast): > 15.7 µM
- GI50 (HCT-116 colon): 0.188 µM
- TGI (HCT-116 colon): 1.77 µM
- GI50 (KM12 colon): 0.163 µM
- TGI (KM12 colon): 0.987 µM
- GI50 (MCF7 breast): 0.209 µM
- TGI (MCF7 breast): > 50 µM
- GI50 (OVCAR-4 ovarian): 0.362 µM
- TGI (OVCAR-4 ovarian): > 50 µM
- GI50 (SNB-19 CNS): 0.263 µM
- TGI (SNB-19 CNS): > 50 µM
- GI50 (UO-31 renal): 0.457 µM
- TGI (UO-31 renal): > 50 µM

Compound: OCC(O)C(O)C(O)c1nn(-c2ccc(F)cc2)c2nc3cc(Cl)c(Cl)cc3nc12 (stereo not given)
- TGI (HCT-116 colon): > 100 µM
- TGI (KM12 colon): 84.8 µM
- TGI (OVCAR-4 ovarian): > 100 µM
- TGI (SNB-19 CNS): 38 µM
- TGI (UO-31 renal): > 100 µM

Compound: COc1ccc(-c2csc(Nc3cccc(-c4csc(C)n4)c3)n2)cc1
- GI50 (ACHN renal): 0.859 µM
- TGI (ACHN renal): 18.6 µM
- GI50 (BT-549 breast): 8.2 µM
- TGI (BT-549 breast): 40.3 µM
- GI50 (HCT-116 colon): 1.8 µM
- TGI (HCT-116 colon): > 50 µM
- GI50 (KM12 colon): 1.17 µM
- TGI (KM12 colon): > 16.7 µM
- GI50 (MCF7 breast): 0.31 µM
- TGI (MCF7 breast): > 50 µM
- GI50 (MDA-MB-231 breast): 0.824 µM
- TGI (MDA-MB-231 breast): 4.52 µM
- GI50 (MDA-MB-435): 0.366 µM
- TGI (MDA-MB-435): 1.02 µM
- GI50 (SNB-19 CNS): 1.04 µM
- TGI (SNB-19 CNS): > 50 µM
- GI50 (UO-31 renal): 2.54 µM
- TGI (UO-31 renal): > 50 µM

Compound: COc1ccc(C2NC(=S)NC3=C2CCOc2c3ccc3ccccc23)cc1 (stereo not given)
- GI50 (ACHN renal): 69.3 µM
- TGI (ACHN renal): > 100 µM
- GI50 (BT-549 breast): 68.8 µM
- TGI (BT-549 breast): > 100 µM
- GI50 (KM12 colon): 27 µM
- TGI (KM12 colon): > 100 µM
- GI50 (MCF7 breast): 5.32 µM
- TGI (MCF7 breast): > 100 µM
- GI50 (MDA-MB-231 breast): 98.9 µM
- TGI (MDA-MB-231 breast): > 100 µM
- GI50 (MDA-MB-435): 36.4 µM
- TGI (MDA-MB-435): > 100 µM
- GI50 (OVCAR-4 ovarian): > 100 µM
- TGI (OVCAR-4 ovarian): > 100 µM
- GI50 (SNB-19 CNS): > 100 µM
- TGI (SNB-19 CNS): > 100 µM
- GI50 (UO-31 renal): 98.3 µM
- TGI (UO-31 renal): > 100 µM

Compound: O=C1CCC(=O)N1Sc1ccccc1
- TGI (ACHN renal): > 100 µM
- TGI (HCT-116 colon): > 100 µM
- TGI (KM12 colon): > 100 µM
- TGI (OVCAR-4 ovarian): > 100 µM
- TGI (SNB-19 CNS): > 100 µM
- TGI (UO-31 renal): > 100 µM

Compound: COc1cc2c(c(OC)c1OC)C(=O)NCCC2
- TGI (ACHN renal): > 100 µM
- TGI (HCT-116 colon): > 100 µM
- TGI (KM12 colon): > 100 µM
- TGI (MCF7 breast): > 100 µM
- TGI (OVCAR-4 ovarian): > 100 µM
- TGI (SNB-19 CNS): > 100 µM
- TGI (UO-31 renal): > 100 µM

Compound: O=C(O)CCCCC1CCSS1 (stereo not given)
- TGI (ACHN renal): > 100 µM
- TGI (HCT-116 colon): > 100 µM
- TGI (KM12 colon): > 100 µM
- TGI (MCF7 breast): > 100 µM
- TGI (MDA-MB-231 breast): > 100 µM
- TGI (MDA-MB-435): > 100 µM
- TGI (OVCAR-4 ovarian): > 100 µM
- TGI (SNB-19 CNS): > 100 µM
- TGI (UO-31 renal): > 100 µM

Compound: C1=CC2CCC1CN2CCC1CNc2ccccc21 (stereo not given)
- TGI (ACHN renal): > 100 µM
- TGI (HCT-116 colon): > 100 µM
- TGI (KM12 colon): > 100 µM
- TGI (SNB-19 CNS): > 100 µM
- TGI (UO-31 renal): > 100 µM

Compound: O=C1OC(=O)C([Se]c2ccccc2)=C1[Se]c1ccccc1
- TGI (ACHN renal): > 100 µM
- TGI (HCT-116 colon): > 100 µM
- TGI (OVCAR-4 ovarian): > 100 µM
- TGI (SNB-19 CNS): > 100 µM
